The record followed here is ChEMBL document CHEMBL1153569, “Development of QSAR models for predicting hepatocarcinogenic toxicity of chemicals” (Eur J Med Chem, 2009).

Structures are written as SMILES.

This series is filed under the species Mus musculus. As to the kind of experiment: Hepatotoxicity in mouse assessed as carcinogenic potency. The settings on record: in vivo.
`ClCC(Cl)(Cl)Cl`: the pTD50 stood at 2.419. As for `O=[N+]([O-])c1ccc2[nH]cnc2c1`, the pTD50 was 2.458. The figure for `COc1ccc([N+](=O)[O-])cc1N` is 1.93; for `Cc1ccc([N+](=O)[O-])cc1N` it is 2.74; for `Nc1ccc(Oc2ccc(N)cc2)cc1` it is 2.9. The figure for `COc1ccc(C)cc1N` is 2.639; for `O=[N+]([O-])c1ccc2c3c(cccc13)CC2` it is 3.638. Next, `Nc1cccc2c(N)cccc12`: 3.14; `Cc1cc(C)c(N)cc1C`: 4.344; `Cc1ccc(N)cc1N`: 3.66. Regarding `NC(=S)NNC(N)=S`, the pTD50 worked out at 1.423. The figure for `Nc1cc(Cl)c(N)c(Cl)c1` is 1.941; for `CCc1ccc(C(c2ccc(CC)cc2)C(Cl)Cl)cc1` it is 1.988. Next, `Nc1ccc(Cl)cc1N`: 1.73; `Cc1ccc(Cl)cc1N`: 2.77. Next, `Nc1ccc(Cl)c(N)c1`: 1.9.

For the molecule `Nc1ccc2c(c1)C(=O)c1ccccc1C2=O`, the pTD50 was found to be 2.185. Next, `ClC(Cl)C(Cl)Cl` [1,1,2,2-TETRACHLOROETHANE]: 3.63.

Take `ClCC(Cl)CCl` [1,2,3-TRICHLOROPROPANE]: the pTD50 is listed as 4.041. Next, `Clc1ccc(Cl)cc1` [1,4-DICHLOROBENZENE]: 2.328; `Nc1c(Br)cc(Br)c2c1C(=O)c1ccccc1C2=O` [1-AMINO-2,4-DIBROMOANTHRA-QUINONE]: 2.313. For the molecule `Clc1cc2c(cc1Cl)Oc1cc(Cl)c(Cl)cc1O2` [2,3,7,8-TETRACHLORODIBENZO-P-DIOXIN], the pTD50 came out at 8.867. The figure for `Nc1ccc(Sc2ccc(N)cc2)cc1` [4,4'-THIODIANILINE] is 3.809; for `ClC(Cl)Br` [BROMODICHLOROMETHANE] it is 3.056. The figure for `C=CC=C` [BUTADIENE] is 3.091; for `Nc1cc(Cl)cc(C(=O)O)c1Cl` [CHLORAMBEN] it is 1.607; for `CCOC(=O)C(O)(c1ccc(Cl)cc1)c1ccc(Cl)cc1` [CHLOROBENZILATE] it is 2.862. Next, `ClC(Cl)Cl` [CHLOROFORM]: 3.361; `C=CC(=C)Cl` [CHLOROPRENE]: 3.689; `Nc1ccccc1C(=O)OC/C=C/c1ccccc1` [CINNAMYL ANTHRANILATE]: 1.529.

Turning to `O=NN(O)c1ccccc1` [CUPFERRON], the pTD50 stood at 2.439. Next, `C=C(C)[C@H]1CC=C(C)CC1` [D-LIMONENE]: 1.113; `ClC(Cl)=C(c1ccc(Cl)cc1)c1ccc(Cl)cc1` [DICHLORODIPHENYLDICHLOROETHYLENE]: 4.492; `C1COCCO1` [DIOXANE]: 1.883. The figure for `CCCl` [ETHYL CHLORIDE] is 0.93. The figure for `S=C1NCCN1` [ETHYLENE THIOUREA] is 3.341; for `CNc1ccc(N(CCO)CCO)cc1[N+](=O)[O-]` [HC BLUE NO. 1] it is 2.953.

Consider `ClC(Cl)(Cl)C(Cl)(Cl)Cl` [HEXACHLOROETHANE], for which the pTD50 stood at 2.683. Next, `c1ccc(NNc2ccccc2)cc1` [HYDRAZOBENZENE]: 3.793; `O=C1C2(Cl)C3(Cl)C4(Cl)C(Cl)(Cl)C5(Cl)C3(Cl)C1(Cl)C5(Cl)C24Cl` (centres undefined) [KEPONE]: 5.662; `ClCCl` [METHYLENE CHLORIDE]: 1.581.

With `CN(C)c1ccc(C(=O)c2ccc(N(C)C)cc2)cc1` [MICHLER'S KETONE], the pTD50 is listed as 3.383. As to `O=[N+]([O-])c1ccc(Oc2ccc(Cl)cc2Cl)cc1` [NITROFEN], the pTD50 was determined as 3.203. The figure for `ClC(Cl)C(Cl)(Cl)Cl` [PENTACHLOROETHANE] is 3.39. The figure for `O=C1NC(=O)C(c2ccccc2)(c2ccccc2)N1` [PHENYTOIN] is 3.18. Next, `C=C(Cl)CSC(=S)N(CC)CC` [SULFALLATE]: 3.32; `O=C(O)c1cc(/N=N/c2ccc(S(=O)(=O)Nc3ccccn3)cc2)ccc1O` [SULFASALAZINE]: 1.866. As for `Cc1noc(NS(=O)(=O)c2ccc(N)cc2)c1C` [SULFISOXAZOLE], the pTD50 is 2.004. The figure for `ClC(Cl)=C(Cl)Cl` [TETRACHLOROETHYLENE] is 3.1. Next, `FC(F)=C(F)F` [TETRAFLUOROETHYLENE]: 2.907; `C1CCOC1` [TETRAHYDROFURAN]: 1.233; `CC(Cl)(Cl)Cl` [TRICHLOROETHANE]: 3.38. Turning to `ClC=C(Cl)Cl` [TRICHLOROETHYLENE], the pTD50 is on record as 2.16.

As for `CCCN(CCC)c1c([N+](=O)[O-])cc(C(F)(F)F)cc1[N+](=O)[O-]` [TRIFLURALIN], the pTD50 worked out at 2.96.
